Measured values reported in patent publication US20260294770A1, “FORMULATIONS OF NARINGENIN” (DEBUT BIOTECHNOLOGY, INC., priority 2023, published 2026).

Tests used:
glutathione = settings: consumed orally; cited from earlier work
IL13RA2 = assay: Downregulation of gene expression and/or activity, 1% naringenin: IL13RA2
Source text: (§1) In certain embodiments, administration of a composition comprising naringenin leads to up-regulation of LCE5A, KRT77, ALOXE3, KRT1, HPGD, MUCL1, CASP14, WFDC12, KRT10, DNASE1L2, IL37, SERPINB12, HAL, UPK1A, CALML5, LCE2B, and/or MIR205. In certain embodiments, administration of a composition comprising naringenin leads to down-regulation of CCL11, CSF2, IL23A, IL11, BMP6, IL13RA2, C2CD4A, NR4A2, C2CD4B, FGF2, FARP4, GDF15, THBS1, HSPA1A, PTGS2, and/or DKK1. Tables 10 and 11 provide data for upregulation and downregulation respectively of certain genes after administration of compositions comprising 1% naringenin.
Interleukin 13 receptor subunit alpha 2 (IL13RA2) plays a role in recovery after stressor caused inflammatory response. In certain embodiments, downregulation of IL13RA2 leads to improved recovery after inflammation caused by stressors. In certain embodiments, the administration of composition comprising naringenin results in at least about 5 to about 15-fold downregulation of expression and/or activity of IL13RA2. In certain embodiments, the administration of composition comprising naringenin results in at least about ten (10) fold downregulation of expression and/or activity of IL13RA2.

SERPINB12 = assay: Upregulation of gene expression and/or activity, 1% naringenin: SERPINB12
Source text: as §1
Serine protease inhibitor (SERPINB12) plays a role in protection of epithelial cells. The intracellular serine protease inhibitors (serpins) are an important family of proteins that protect cells form proteinase-mediated injury. SERPINB12 is broadly expressed and is likely to protect cells, including epithelial cells, from both endogenous and exogenous peptidases. In certain embodiments, compositions comprising naringenin leads to upregulation of SERPINB12, which leads to increase in protection of epithelial cells. In certain embodiments, the administration of composition comprising naringenin results in at least about 5 to about 20-fold upregulation of expression and/or activity of SERPINB12. […]

FABP4 = assay: Downregulation of gene expression and/or activity, 1% naringenin: FABP4
Source text: as §1
Fatty acid binding protein 4 (FABP4) plays a role in metabolic inflammation from the fat tissue. FABP4 acts at the interface of metabolic and inflammatory pathways in adipocytes and macrophages and plays important roles in the development of insulin resistance, diabetes mellitus, and atherosclerosis. In certain embodiments, downregulation of FABP4 leads to reduced metabolic inflammation from the fat tissue signaling. In certain embodiments, the administration of composition comprising naringenin results in at least about 2 to about 10-fold downregulation of expression and/or activity of FABP4. In certain embodiments, the administration of composition comprising naringenin results in at least about five (5) fold downregulation of expression and/or activity of FABP4.

[1] = ABTS antioxidant assay (aqueous); format: biochemical; settings: for % Radical Inhibition: aqueous
Source text: The 2,2′-Azinobis [3-ethylbenzothiazoline-6-sulfonic acid]-diammonium salt (ABTS) antioxidant assay is designed to evaluate the antioxidant activity of compositions comprising naringenin in an aqueous medium. ABTS+ solution is generated as a free radical and used to measure relative ability of a compound to scavenge free radicals. Reduction of the absorbance at 734 nm was standardized to solvent control as an indication of ABTS+ scavenging.

[2] = Glycation inhibition assay; format: biochemical; settings: for IC50 glycation inhibition: calculated
Description: The assay was conducted to evaluate the glycation inhibition activity of compositions comprising naringenin.
Nonenzymatic glycation can occur when glucose reacts with proteins, forming a Schiff base intermediate that subsequently undergoes Amadori rearrangement to form glycosylated proteins, when they react with skin proteins to form Advanced Glycation End products (AGE). AGE formation can result in loss of skin elasticity and impaired cellular function. The glycation inhibition ability of a compound is measured by change in fluorescence m relative to solvent control.

[3] = biological target: T1, human neutrophil elastase (Homo sapiens, UniProt P08246); assay: Elastase enzyme inhibition; format: biochemical
T1 sequence (P08246 30-267): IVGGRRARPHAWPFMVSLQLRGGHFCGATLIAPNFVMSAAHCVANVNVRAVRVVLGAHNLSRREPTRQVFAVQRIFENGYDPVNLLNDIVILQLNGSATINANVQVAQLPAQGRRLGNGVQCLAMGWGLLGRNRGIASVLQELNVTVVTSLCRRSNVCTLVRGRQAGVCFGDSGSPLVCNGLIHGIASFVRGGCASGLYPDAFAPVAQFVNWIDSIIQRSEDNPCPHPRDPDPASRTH
Description: The assay was conducted to evaluate the elastase enzyme inhibition activity of compositions comprising naringenin.
Neutrophil infiltration and neutrophil elastase are both increased in the skin in response to UV stress. […] Therefore, inhibition of this enzyme, particularly in combination with antioxidant activity, is effective in delaying wrinkle development and aiding in maintaining skin integrity. This assay is measures release of 4-nitroaniline from an Me-Suc-Ala-Ala-Pro-Val-pNA by human neutrophil elastase and can be quantified at 405 nm by comparing to solvent control.

mouse models = settings: intraperitoneal; cited from earlier work
BMP6 = assay: Downregulation of gene expression and/or activity, 1% naringenin: BMP6
Source text: as §1
Bone morphogenetic protein 6 (BMP6) plays a role in wound healing. The protein encoded by this gene is a member of the TGFβ superfamily. Bone morphogenetic proteins are known for their ability to induce the growth of bone and cartilage. BMP6 may induce all osteogenic markers in mesenchymal stem cells. In certain embodiments, the administration of compositions comprising naringenin leads to downregulation of expression and/or activity of BMP6. […] In certain embodiments, this may also lead to anti-aging effect for the skin. In certain embodiments, the administration of composition comprising naringenin results in at least about 2 to about 20-fold downregulation of expression and/or activity of BMP6. […]

O=C1C[C@@H](c2ccc(O)cc2)Oc2cc(O)cc(O)c21 [naringenin, (2S)-5,7-Dihydroxy-2-(4-hydroxyphenyl)-2,3-dihydro-4H-1-benzopyran-4-one]
Glutathione (glutathione): increase | fold downregulation in expression and/or activity of IL13RA2 (IL13RA2): ~10 fold | Fold-increase (downregulation table) IL13RA2 (IL13RA2; negative = downregulation): −10 fold | Fold-increase in expression and/or activity of SERPINB12 (SERPINB12): ~13 fold | fold downregulation in expression and/or activity of FABP4 (FABP4): ~7 fold | Fold-increase (downregulation table) FABP4 (FABP4; negative = downregulation): −7 fold | % Radical Inhibition ([1]; 0.0045 % w/w naringenin): 47.50% | % Radical Inhibition ([1]; 0.009 % w/w naringenin): 55.45% | % Radical Inhibition ([1]; 0.018 % w/w naringenin): 65.39% | IC50 antioxidant activity (ABTS) ([1]; aqueous solvent system, calculated): 0.0058 % w/w | Lowest concentration with antioxidant activity ([1]; aqueous systems): ≤ 0.001 % w/w | Lowest concentration inhibiting glycation [2]: ≤ 0.002 % w/w | % Enzyme Inhibition (glycation inhibition) ([2]; 0.008 % w/w naringenin): 27.87% | % Enzyme Inhibition (glycation inhibition) ([2]; 0.016 % w/w naringenin): 45.49% | % Enzyme Inhibition (glycation inhibition) ([2]; 0.031 % w/w naringenin): 60.22% | % Enzyme Inhibition (glycation inhibition) ([2]; 0.0625 % w/w naringenin): 69.05% | IC50 glycation inhibition [2]: 0.019 % w/w | IC50 glycation inhibition ([2]; Example 7): 0.019% | Lowest concentration inhibiting elastase [3]: ≤ 0.02 % w/w | inhibition at 0.02 % strength ([3]; 0.02 % w/w naringenin): 1.05% | inhibition at 0.1 % strength ([3]; 0.10 % w/w naringenin): 15.5% | inhibition at 0.5 % strength ([3]; 0.50 % w/w naringenin): 84% | IC50 elastase inhibition ([3]; role: inhibitor, substrate Me-Suc-Ala-Ala-Pro-Val-pNA, calculated): 0.159 % w/w | Cytokine production (mouse models): lowers cytokine production | Edema (mouse models): effectively inhibits edema | Symptoms associated with atopic dermatitis (mouse models): lowers symptoms associated with atopic dermatitis | UVB-induced skin damage (mouse models): inhibits UVB-induced skin damage | fold downregulation in expression and/or activity of BMP6 (BMP6): ~11 fold | Fold-increase (downregulation table) BMP6 (BMP6; negative = downregulation): −11 fold
